Results reported in patent publication US6242482A, “Prostaglandin compounds and derivatives thereof, compositions containing the same and method of using the same for the treatment of congestive heart failure” (priority 2000, dated 2001).
Where “and” joins values, the source holds several entries; their conditions need not be identical. Equal values may be shown once. Entries after “also recorded” stand apart in the source; their conditions may differ. Read-outs that look alike come from different tables or passages of the source.

Columns and labels:
[1] = tested on: Human Platelet Aggregation (collagen-induced); assay: Anti-aggregatory response after incubation with aqueous vehicle (Example 8); format: cell-based; settings: up to 4 hours at 37° C
Procedure: (§1) Blood from healthy human volunteers who had not taken any medicine for at least 14 days was collected by venopuncture into 3.15% (w/v) tri-sodium citrate (9:1 v/v). The blood was centrifuged at 800 g for 15 minutes to produce PRP. The PRP was further centrifuged at 12,000 g for 1 minute to produce PPP. A total of 12 volunteers donated blood for the study.
(§2) Platelet aggregation was studied using a dual channel Payton aggregometer calibrated with PRP (0%) and PPP (100%) with respect to the degree of light transmission. Aliquots of PRP (500 μl) were added to siliconized cuvettes, stirred (1000 revs/min) and warmed to 37° C. The platelets were incubated for 1 minute to establish a stable baseline prior to investigation. A submaximal concentration of the aggregating agent collagen (1 μg/ml) was added to the PRP and the platelet aggregation was monitored as the increase in light transmission observed over a 4 minute period.
(§3) After the incubation period, an aliquot of the PPP or aqueous vehicle (50 μl) was added to fresh PRP (450 μl) for determination of anti-platelet activity. This experiment was repeated using PPP from at least three human volunteers for each compound.

[2] = tested on: Human Platelet Aggregation (collagen-induced); assay: Anti-aggregatory activity, 1 min incubation with PRP, collagen-induced (Example 8); format: cell-based; settings: 1 minute with PRP
Procedure: as §1, §2
The percentage inhibition of the platelet aggregation was calculated using the peak increase in light transmission observed over the 4 minute period following addition of collagen, as compared to that of control. This experiment was repeated using PRP from at least three human volunteers for each compound under study.

[3] = tested on: mean arterial pressure and heart rate of anesthetized rats; settings: for Time of second Δmax (superscript) / Time of Δmax (superscript) / t1/2 / Δmax (Mean Arterial Pressure) / Δmax, second value in parentheses: Table 5; for Mean Arterial Pressure: b338-b348 = 0,1,5,10,15,30,60,120,180,240,360 min
Procedure: Male Wistar rats (250-330 g) were anesthetized with thiopentone sodium (INTRAVAL®, 120 mg/kg i.p.). The trachea was cannulated to facilitate respiration. The right carotid artery was cannulated and connected to a pressure transducer (Spectramed P23XL), for the measurement of mean arterial pressure (MAP) and heart rate (HR) which were continuously recorded on a 4-channel Grass 7D polygraph recorder (Grass, Mass., U.S.A.). Body temperature was maintained at 37±1°C. by means of a rectal probe thermometer attached to a homeothermic blanket control unit (Harvard Apparatus Ltd.).

[4] = tested on: Human Platelet Aggregation (collagen-induced); assay: Anti-aggregatory response after incubation with PPP (Example 8); format: cell-based
Procedure: as §1, §2, §3

[5] = tested on: mean arterial pressure and heart rate of anesthetized rats; assay: Systemic hemodynamic effects, intravenous, anesthetized rats (Example 9); format: in vivo, rat (male Wistar)
Procedure: Among other effects, lowering of the blood pressure inside the blood vessels is beneficial for the treatment of congestive heart failure by reducing the vascular resistance of the blood flow which substantially reduces the work load imposed on the heart. […] This study involved the use of male Wistar rats anaesthetized with thiopentone sodium ([…]®, 120 mg kg^-1 i.p.). The trachea was cannulated to facilitate breathing.

[6] = background; cited from earlier work

Compound: CCCCCC(CCC1C(OC(C)=O)CC2Cc3c(cccc3OCC(=O)O)CC21)OC(C)=O (stereo not drawn) [Compound 4, Compound X Diacetate]
- effect of incubation with aqueous vehicle/saline/buffer on anti-platelet activity [1]: This effect was also observed during incubation of the compound in saline
- inhibiting aggregation by 50% concentration (IC50) [2]: 68 ± 2 µg/mL
- inhibition of platelet aggregation, concentration dependence [2]: concentration-dependent inhibition of platelet aggregation
- inhibition of aggregation response at highest concentrations ([2]; X 30 and 100 ng/ml, 4 300 μg/ml, 6 3 mg/ml, 7 10 mg/ml): completely inhibited the aggregation response
- effective life of the fall in MAP ([3]; 1 mg/kg s.c.): > 300 min
- maximum fall in MAP ([3]; 1 mg/kg s.c.): about 26 mm Hg
- time of maximum fall in MAP ([3]; 1 mg/kg s.c.): 60 min
- Time of second Δmax (superscript) ([3]; 1 mg/kg s.c.): 210 min
- Time of Δmax (superscript) ([3]; 1 mg/kg s.c.): 60 min
- t1/2 ([3]; 1 mg/kg s.c.): > 5 h
- Δmax (Mean Arterial Pressure) ([3]; 1 mg/kg s.c.): 26 ± 6 mm Hg
- Δmax, second value in parentheses ([3]; 1 mg/kg s.c.): 28 ± 7 mm Hg
- Mean Arterial Pressure ([3]; 1 mg/kg s.c.): 87 ± 3 mm Hg and 94 ± 3 mm Hg
- another fall in MAP ([3]; 1 mg/kg s.c., second fall): 28 mm Hg
- time of another fall in MAP ([3]; 1 mg/kg s.c., second fall): 210 min
- effective life of the fall in MAP ([3]; 3 mg/kg s.c.): > 330 min
- Time of Δmax (superscript) ([3]; 3 mg/kg s.c.): 30 min
- t1/2 ([3]; 3 mg/kg s.c.): > 5.5 h
- Δmax (Mean Arterial Pressure) ([3]; 3 mg/kg s.c.): 41 mm Hg
- Mean Arterial Pressure ([3]; 3 mg/kg s.c.): 87 ± 4 mm Hg
- effective life of the fall in MAP ([3]; 10 mg/kg s.c.): > 300 min
- Time of second Δmax (superscript) ([3]; 10 mg/kg s.c.): 150 min
- Time of Δmax (superscript) ([3]; 10 mg/kg s.c.): 60 min
- t1/2 ([3]; 10 mg/kg s.c.): > 5 h
- Δmax (Mean Arterial Pressure) ([3]; 10 mg/kg s.c.): 45 ± 5 mm Hg
- Δmax, second value in parentheses ([3]; 10 mg/kg s.c.): 48 ± 6 mm Hg
- IC50 ([4]; after 15 minutes in PPP): 5 ± 0.2 µg/mL
- increase in anti-platelet activity ([4]; after 15 minutes in PPP): ~10 fold
- increase in activity on incubation with plasma or aqueous vehicle ([4]; initial ten (10) minute period, plasma or aqueous vehicle): ~10 fold
- effect of incubation with PPP on anti-platelet activity ([4]; up to 4 hours at 37° C): no further increase in activity; also recorded: this increase in activity was no greater after four (4) hours of incubation
- effective life of the fall in MAP ([5]; 1 mg/kg i.v.): about 110 minutes
- maximum fall in MAP ([5]; 1 mg/kg i.v.): about 30 mm Hg
- time of maximum fall in MAP ([5]; 1 mg/kg i.v.): 30 min
- effective life of the fall in MAP ([5]; comparison of Compound 4 with Compound X (1 mg/kg i.v.)): over 90 minutes
- fall in MAP ([5]; i.v., Compound X 1 mg/kg, Compound 4 1-10 mg/kg, others 3-30 mg/kg): rapid, dose-related fall in MAP; also recorded: rapid and substantial falls in MAP

Compound: CCCCC[C@H](O)/C=C/[C@@H]1[C@H]2C/C(=C/CCCC(=O)O)O[C@H]2C[C@H]1O [prostacyclin]
- effective life [6]: less than six
